PMC6743335 (Journal of the American Chemical Society, 2018)

Target: T1, human ATR (adenosyltransferase) (Homo sapiens, UniProt Q96EY8)
T1 sequence (Q96EY8 33-250 limits assumed): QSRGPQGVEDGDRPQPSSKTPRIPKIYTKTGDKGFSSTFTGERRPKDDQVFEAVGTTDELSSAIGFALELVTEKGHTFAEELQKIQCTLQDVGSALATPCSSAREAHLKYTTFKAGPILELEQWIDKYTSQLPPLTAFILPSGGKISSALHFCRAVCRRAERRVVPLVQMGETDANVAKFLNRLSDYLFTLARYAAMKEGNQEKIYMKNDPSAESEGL
Assay: binding, method in supplement
Details: ATP in the third site of the crystal with Mg

SMILES: Nc1ncnc2c1ncn2[C@@H]1O[C@H](COP(=O)(O)OP(=O)(O)OP(=O)(O)O)[C@@H](O)[C@H]1O [ATP]
- Kd: Electron density for AdoCbl was observed in two active sites
